Where two headings read alike, the source gives them in different places.
Tests used:
HDAC1 = HDAC1 (Homo sapiens, UniProt Q13547); experiment: HDAC enzymatic assay, fluorescence-labeled substrate; format: biochemical; settings: for inhibition at 10 µM: source data of Fig. 1B
HDAC3 = HDAC3 (Homo sapiens, UniProt O15379); experiment: as above; format: biochemical; settings: for inhibition at 10 µM: source data of Fig. 1B
HDAC9 = target: T1, HDAC9 (Homo sapiens, UniProt Q9UKV0); experiment: HDAC assay (Eurofins); format: biochemical
T1 construct: purchased Eurofins (contracted assay service)

[1] = Cryopreserved hepatocyte stability; format: in vitro ADME; settings: read-out: Liver Hepatocytes Estimation T1/2
Method: This study was conducted at Wuxi (http://www.wuxi.com/). […] Stock solutions of test compound (10 mM; 100% DMSO) and positive controls (7-ethoxycoumarin and 7-hydroxycoumarin; 30 mM; 100% DMSO) were diluted to 1 mM and 3 mM with DMSO and then diluted to 100 μM and 300 μM with acetonitrile (dosing solutions). Cryopreserved cells (from Human Donors, Bioreclamation IVT, Cat No. X008001 and from male C57 Mice, Bioreclamation IVT, Cat No. S00463) were thawed, isolated and suspended in Williams’ Medium E, then diluted with pre-warmed Williams’ Medium E to 0.5 × 10^6 cells/mL. Cell viability was tested by trypan blue exclusion after thawing. A volume of 2 μL of dosing solution and 198 μL of pre-warmed cell suspensions were added to a 96-well plate and incubated at 37 °C (5% CO2) with constant shaking at 600 rpm. Following different incubation times (0, 15, 30, 60 and 90 min), 20 μL of each sample was transferred to a well containing 80 μL of ice-cold stop solution (acetonitrile containing 200 ng/mL tolbutamide and 200 ng/mL labetalol as internal standards). Plates were vortexed at 27 g for 10 min and then centrifuged at 3220 × g for 20 min at 4 °C. An aliquot of supernatant (75 μL) was transferred from each well and mixed with 75 μL of ultra-pure water before submitting to LC-MS/MS analysis. Concentrations of test and control compounds were quantified by LC-MS/MS using a peak area ratio of analyte/internal standard, and the percent loss of the parent compound was calculated at each time point to determine the half-life (t1/2, min). Experiments were performed in duplicate.

CACO-2 permeability = format: in vitro ADME; settings: human; for efflux ratio at 120 min, 2 µM: Caco-2, pH 7.4; for Papp A→B at 120 min, 2 µM: Caco-2, pH 7.4, A to B
Method: This study was conducted at Wuxi (http://www.wuxi.com/). Caco-2 cells (ATCC) were seeded onto polyethylene membranes in 96-well BD insert plates at 1 × 10^5 cells/cm^2, and the medium was changed every 4 days until the 21st to 28th day for confluent cell monolayer formation. Test compounds were diluted with transport buffer (HBSS with 10 mM HEPES at pH 7.4 ± 0.05) to a concentration of 2 µM (final DMSO concentration adjusted to <1%) and tested bi-directionally to investigate P-glycoprotein-mediated efflux in duplicate. Controls: digoxin (10 μM, bi-directionally), nanodolol and metoprolol (2 μM, apical, A, to basolateral, B). The permeation was assessed over a 120-minute incubation at 37 °C ± 1 °C and 5% CO2 at saturated humidity without shaking. Samples were mixed with acetonitrile containing internal standard and centrifuged at 1520 g for 10 min. Then, 100-μL aliquots of supernatant solutions were diluted with 100 μL of pure water. Concentrations of test and control compounds in starting solution, donor solution, and receiver solution were quantified by LC-MS/MS using a peak area ratio of analyte to internal standard. Permeation of lucifer yellow through the monolayer was measured to evaluate the cellular integrity. The results are the average of two biological replicates.

[2] = cryopreserved hepatocytes, Human
[3] = male, C57, cryopreserved hepatocytes, Mouse

HDAC3, sequence (O15379 whole entry): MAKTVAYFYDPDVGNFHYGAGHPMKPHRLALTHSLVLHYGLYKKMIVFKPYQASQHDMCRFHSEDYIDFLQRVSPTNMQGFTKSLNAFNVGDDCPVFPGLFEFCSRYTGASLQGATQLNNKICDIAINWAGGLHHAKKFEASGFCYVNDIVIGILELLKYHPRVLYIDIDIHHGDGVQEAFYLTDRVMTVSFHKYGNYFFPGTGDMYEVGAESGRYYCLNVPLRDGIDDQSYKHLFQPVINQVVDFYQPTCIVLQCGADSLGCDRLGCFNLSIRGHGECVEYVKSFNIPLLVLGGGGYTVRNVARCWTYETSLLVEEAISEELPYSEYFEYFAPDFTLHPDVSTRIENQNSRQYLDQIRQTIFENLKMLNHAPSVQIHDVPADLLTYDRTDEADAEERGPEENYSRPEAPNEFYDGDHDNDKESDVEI
HDAC3, sequence (Q9Y618 395-489 partner limits assumed): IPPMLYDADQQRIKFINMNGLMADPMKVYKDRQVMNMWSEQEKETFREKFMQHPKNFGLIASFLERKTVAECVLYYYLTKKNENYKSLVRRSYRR
T1 sequence (Q9UKV0 whole entry): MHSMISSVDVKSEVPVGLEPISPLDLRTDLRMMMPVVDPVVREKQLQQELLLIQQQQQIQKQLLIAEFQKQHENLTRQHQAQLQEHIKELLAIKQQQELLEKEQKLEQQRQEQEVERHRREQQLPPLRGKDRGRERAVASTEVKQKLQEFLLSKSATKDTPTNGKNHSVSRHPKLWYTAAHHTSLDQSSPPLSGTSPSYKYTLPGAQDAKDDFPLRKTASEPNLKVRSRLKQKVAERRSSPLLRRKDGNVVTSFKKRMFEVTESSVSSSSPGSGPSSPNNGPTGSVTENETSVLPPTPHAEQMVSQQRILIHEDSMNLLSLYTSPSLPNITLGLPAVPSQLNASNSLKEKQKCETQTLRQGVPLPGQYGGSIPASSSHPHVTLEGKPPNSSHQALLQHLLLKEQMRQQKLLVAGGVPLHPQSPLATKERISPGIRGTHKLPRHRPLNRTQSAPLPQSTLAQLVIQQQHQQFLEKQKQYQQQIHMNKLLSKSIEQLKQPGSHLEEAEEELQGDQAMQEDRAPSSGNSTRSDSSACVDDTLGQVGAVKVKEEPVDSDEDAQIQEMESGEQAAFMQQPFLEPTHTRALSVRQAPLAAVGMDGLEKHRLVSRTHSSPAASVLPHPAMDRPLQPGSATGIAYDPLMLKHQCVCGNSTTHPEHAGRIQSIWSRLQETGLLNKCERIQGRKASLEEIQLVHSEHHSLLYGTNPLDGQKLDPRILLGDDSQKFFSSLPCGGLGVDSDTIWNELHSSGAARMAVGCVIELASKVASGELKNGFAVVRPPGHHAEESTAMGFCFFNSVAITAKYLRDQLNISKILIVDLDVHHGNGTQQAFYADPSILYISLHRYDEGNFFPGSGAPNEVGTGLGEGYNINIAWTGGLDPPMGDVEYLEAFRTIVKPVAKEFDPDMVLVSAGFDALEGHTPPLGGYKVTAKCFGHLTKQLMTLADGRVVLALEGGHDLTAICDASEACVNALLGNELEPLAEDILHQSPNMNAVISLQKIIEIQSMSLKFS
HDAC1, sequence (Q13547 whole entry): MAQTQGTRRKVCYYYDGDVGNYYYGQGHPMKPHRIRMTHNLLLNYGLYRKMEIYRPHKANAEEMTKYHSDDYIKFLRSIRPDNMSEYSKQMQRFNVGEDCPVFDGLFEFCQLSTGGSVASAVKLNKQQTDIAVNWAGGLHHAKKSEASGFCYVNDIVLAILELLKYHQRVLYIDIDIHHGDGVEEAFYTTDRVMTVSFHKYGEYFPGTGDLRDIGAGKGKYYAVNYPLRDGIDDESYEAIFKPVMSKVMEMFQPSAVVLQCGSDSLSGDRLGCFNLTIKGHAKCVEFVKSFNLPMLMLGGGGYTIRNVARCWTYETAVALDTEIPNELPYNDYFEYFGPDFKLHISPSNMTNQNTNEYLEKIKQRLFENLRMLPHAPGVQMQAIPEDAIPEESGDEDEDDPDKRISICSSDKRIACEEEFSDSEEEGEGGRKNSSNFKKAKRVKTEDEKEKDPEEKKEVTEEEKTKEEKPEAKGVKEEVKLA

For COc1cc2nc(-c3ccc(C)o3)cc(NCC3CCN(c4ncc(C(=O)NO)cn4)CC3)c2cc1OC [CM-444, 2-[4-[[[6,7-dimethoxy-2-(5-methyl-2-furyl)-4-quinolyl]amino]methyl]-1-piperidyl]pyrimidine-5-carbohydroxamic acid], the inhibition at 10 µM (HDAC1) was 90%, the IC50 (HDAC1; read-out: IC50) was 6.55 nM and the inhibition at 10 µM (HDAC3) was 90%. The IC50 (HDAC9) was 90 nM, the inhibition at 10 µM (HDAC9) was 98% and the half-life at 1 µM [1, 2] was 71.1 min. For the same compound, the half-life at 1 µM [1, 3] was 22.8 min, the efflux ratio at 120 min, 2 µM (CACO-2 permeability) was > 1050 and the Papp A→B at 120 min, 2 µM (CACO-2 permeability) was < 0.01 ×10⁻⁶ cm/s.
Work on COc1cc2nc(-c3cc(C)oc3C)cc(NCC3CCN(c4ncc(C(=O)NO)cn4)CC3)c2cc1OC [CM-1758, 2-[4-[[[2-(2,5-dimethyl-3-furyl)-6,7-dimethoxy-4-quinolyl]amino]methyl] -1-piperidyl]pyrimidine-5-carbohydroxamic acid] yielded an inhibition at 10 µM (HDAC1) of 90%, an IC50 (HDAC1; read-out: HDAC1 IC50) of 4.32 nM and an IC50 (HDAC1; read-out: IC50) of 4.3 nM. It also gave an IC50 (HDAC3) of 14 nM, an inhibition at 10 µM (HDAC3) of 90% and an IC50 (HDAC9) of 92 nM. The inhibition at 10 µM (HDAC9) was 97%, the half-life at 1 µM [1, 2] was 92.1 min and the half-life at 1 µM [1, 3] was 19.5 min. The efflux ratio at 120 min, 2 µM (CACO-2 permeability) was > 1050 and the Papp A→B at 120 min, 2 µM (CACO-2 permeability) was < 0.01 ×10⁻⁶ cm/s.
